Experimental data as given in paper PMC9774438, “Effects of Synthetic Short Cationic Antimicrobial Peptides on the Catalytic Activity of Myeloperoxidase, Reducing Its Oxidative Capacity” (Antioxidants, 2022).
Entries after “also recorded” stand apart in the source; their conditions may differ.

How the values were obtained:
myeloperoxidase (MPO) [1] = target: T1, myeloperoxidase (MPO) (Homo sapiens, UniProt P05164); test: MPO heme absorbance spectra (Compound II formation and decay, MPO turnover); format: biochemical; settings: 100 μM H2O2, 10 mM Na-phosphate pH 7.4
T1 construct: Native myeloperoxidase (MPO) was obtained from human leukocyte extract by successive chromatography on heparin-Sepharose and phenyl-agarose; from tissue; host or cells: human leukocyte extract
Procedure: Native myeloperoxidase (MPO) was obtained from human leukocyte extract by successive chromatography on heparin-Sepharose and phenyl-agarose followed by gel-filtration on a Sephacryl S-200 HR, as previously described. The Reinheit Zahl value (A430 nm/A280 nm) for the purified protein was 0.85. The MPO concentration was determined as the heme concentration measured spectrophotometrically at 430 nm with a molar extinction coefficient of 91,000 M^−1 cm^−1 [35].
Spectra of MPO were recorded on a Cary 50 Bio UV-Vis spectrophotometer (Varian, Mulgrave, Australia). Experiments were performed with Eppendorf UVette plastic UV/Vis cuvettes (Hamburg, Germany). An MPO concentration was 2 μM heme. MPO was mixed with CAMP in 10 mM Na-phosphate buffer (pH 7.4) supplemented with 0.2 mM DTPA. H2O2 was added as a microvolume of concentrated solution (100 μM final).
To elucidate the influence of CAMPs on MPO catalytic activity, we analyzed absorbance spectral changes for MPO activated by H2O2 in the presence of peptides. The spectra were obtained with 2 μM MPO heme and 100 μM H2O2 in 10 mM Na-phosphate buffer, pH 7.4. All reactions in these and further experiments were performed in buffers supplemented with 0.2 mM diethylenetriaminepentaacetic acid (DTPA) to sequester free transition metal ions to prevent tyrosine and cysteine autooxidation.
Figure 2 Time courses of spectral absorbance changes at 430 nm (indicative of MPO ground state) and 455 nm (indicative of Compound II) in the absence and presence of cationic antimicrobial peptides (CAMPs) in the system MPO/H2O2. The name of CAMP is given in parentheses after the panel designation (A–D). H2O2 (100 µM) was added to MPO (2 µM heme) or MPO preincubated with peptides at different peptide/heme molar ratios for 5 min in 10 mM Na-phosphate buffer, pH 7.4. Spectra were taken before and 0.25 min, 5 min, 10 min, and so on after adding H2O2. The initial absorbance values (before H2O2 addition) are shown as a red square marker. […]

myeloperoxidase (MPO) [2] = target: T1, myeloperoxidase (MPO); test: Electrospray mass spectrometry of dityrosine cross-linked peptide dimer; format: biochemical; settings: 40 μM peptide, 0.4 μM MPO heme, 50 μM H2O2, 10 mM Na-phosphate; ESI-MS positive mode
Procedure: Mass spectra were acquired using an Orbitrap Q Exactive HF-X mass spectrometer equipped with HESI source in the positive ion mode (Thermo Fisher Scientific, Waltham, MA, USA). Direct infusion syringe pump sampling was carried out with a […] Hamilton syringe at a flow rate of […]. The spray voltage was set at +3.5 kV, the sheath and auxiliary gas flow rate at 5 and 1, respectively; the S-lens RF level at 65; the capillary temperature at 250 °C. The resolution was set at 240,000, the AGC target at 1E6, and the maximum injection time at 50 ms. A summary spectrum was collected over 4 min and used for calculating S/N and measuring peak intensities. Before analysis, desalting of samples was carried out using C-18 ZIP-TIP (Millipore, Billerica, MA, USA), according to the manufacturer’s instructions. The eluate was mixed with 0.1% formic acid in DI water (18 MOhm) to a volume of 100 μL. The solutions prepared were used for direct infusion.
Additional proof for dityrosine formation upon incubation of Hm-AMP2 with H2O2-activated MPO was obtained by electrospray mass spectrometry which allowed the detection of a peptide product of the molecular weight of the dityrosine cross-linked peptide dimer. Dimerization of peptides via initial formation of a tyrosyl radical results in a 2 Da decrease in the double mass of the peptide to [2M − 2H]. […]

T1 sequence (P05164 279-745 limits assumed): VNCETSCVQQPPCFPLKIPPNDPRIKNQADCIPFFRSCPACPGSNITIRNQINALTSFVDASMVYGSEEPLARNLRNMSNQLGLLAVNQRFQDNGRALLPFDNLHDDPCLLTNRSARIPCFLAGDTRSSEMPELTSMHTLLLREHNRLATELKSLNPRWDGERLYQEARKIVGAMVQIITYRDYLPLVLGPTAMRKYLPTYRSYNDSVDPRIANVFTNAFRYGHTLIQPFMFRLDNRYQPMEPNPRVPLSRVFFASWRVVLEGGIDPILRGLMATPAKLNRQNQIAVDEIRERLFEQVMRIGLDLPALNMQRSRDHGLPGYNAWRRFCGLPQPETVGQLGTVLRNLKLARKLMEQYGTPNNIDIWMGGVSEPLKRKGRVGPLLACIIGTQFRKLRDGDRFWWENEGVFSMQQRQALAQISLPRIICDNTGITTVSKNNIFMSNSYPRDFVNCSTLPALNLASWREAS
T1 sequence (P05164 165-273 limits assumed): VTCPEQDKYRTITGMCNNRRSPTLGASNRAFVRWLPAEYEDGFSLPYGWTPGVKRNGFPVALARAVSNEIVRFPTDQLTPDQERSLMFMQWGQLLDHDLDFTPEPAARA

EKRWRRLIFNYF [Hm-AMP2, synthetic cationic antimicrobial peptide …]
effect on H2O2-induced formation and decay of MPO Compound II / MPO turnover (summary) (myeloperoxidase (MPO) [1]; 2 μM MPO heme, all concentrations): accelerated MPO turnover; also recorded: Acceleration of CII reduction to native MPO
effect on Compound II decay to native MPO (myeloperoxidase (MPO) [1]; peptide/heme molar ratio up to 45:1, 2 μM MPO heme): accelerated Compound II decay to native MPO, with the effect being greater at a higher peptide/heme molar ratio
increase of [2M − 2H + 3H]3+ dimer ion signal (m/z 1152.4) vs control (myeloperoxidase (MPO) [2]): 20 fold
